Like-named read-outs stand apart in the source and are kept apart here.
Tests used:
basophils = test: Basophil activation in human whole blood (Flow2 CAST kit, CD63 positive cells); assay type: cell-based; conditions: Homo sapiens
How it was run: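 Human whole blood (K2-EDTA) preincubated 60 minutes at 37° C with compound serial dilutions or DMSO (0.3% final), then stimulated with anti-FcεRI mAb or fMLP and stained for CD63/CCR3. Percent CD63+ among ≥200 CCR3-high basophils by flow cytometry, normalized to stimulated vehicle as 100%. EC50 from four-parameter fits, geometric means in nM, concentrations corrected for reagent dilution.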

[1] = Hepatocyte stability, 1% final DMSO, 2 μM substrate (t1/2^a); assay type: in vitro ADME; conditions: human, cryopreserved hepatocytes, TA with 1% final DMSO
Description: This assay was used to evaluate the metabolic stability of test articles (TA) following incubation in cryopreserved hepatocytes by monitoring parent drug disappearance via […]. The TA with 1% final DMSO concentration was incubated with 1 million hepatocytes/ml at 2 μM substrate in duplicate. The incubation was carried out at 37° C. with 5% CO2 and saturating humidity.

PI3Kδ = target: T1, PI3Kδ (Homo sapiens, UniProt O00329); test: Enzymatic activity of PI3K isoforms, TR-FRET assay (PIP3 formation); assay type: biochemical; conditions: PI3Kδ; TR-FRET, 2×Km ATP, 10 μM PIP2; read-out: IC50
T1 construct: made in house
T1 sequence (O00329 whole entry, canonical isoform): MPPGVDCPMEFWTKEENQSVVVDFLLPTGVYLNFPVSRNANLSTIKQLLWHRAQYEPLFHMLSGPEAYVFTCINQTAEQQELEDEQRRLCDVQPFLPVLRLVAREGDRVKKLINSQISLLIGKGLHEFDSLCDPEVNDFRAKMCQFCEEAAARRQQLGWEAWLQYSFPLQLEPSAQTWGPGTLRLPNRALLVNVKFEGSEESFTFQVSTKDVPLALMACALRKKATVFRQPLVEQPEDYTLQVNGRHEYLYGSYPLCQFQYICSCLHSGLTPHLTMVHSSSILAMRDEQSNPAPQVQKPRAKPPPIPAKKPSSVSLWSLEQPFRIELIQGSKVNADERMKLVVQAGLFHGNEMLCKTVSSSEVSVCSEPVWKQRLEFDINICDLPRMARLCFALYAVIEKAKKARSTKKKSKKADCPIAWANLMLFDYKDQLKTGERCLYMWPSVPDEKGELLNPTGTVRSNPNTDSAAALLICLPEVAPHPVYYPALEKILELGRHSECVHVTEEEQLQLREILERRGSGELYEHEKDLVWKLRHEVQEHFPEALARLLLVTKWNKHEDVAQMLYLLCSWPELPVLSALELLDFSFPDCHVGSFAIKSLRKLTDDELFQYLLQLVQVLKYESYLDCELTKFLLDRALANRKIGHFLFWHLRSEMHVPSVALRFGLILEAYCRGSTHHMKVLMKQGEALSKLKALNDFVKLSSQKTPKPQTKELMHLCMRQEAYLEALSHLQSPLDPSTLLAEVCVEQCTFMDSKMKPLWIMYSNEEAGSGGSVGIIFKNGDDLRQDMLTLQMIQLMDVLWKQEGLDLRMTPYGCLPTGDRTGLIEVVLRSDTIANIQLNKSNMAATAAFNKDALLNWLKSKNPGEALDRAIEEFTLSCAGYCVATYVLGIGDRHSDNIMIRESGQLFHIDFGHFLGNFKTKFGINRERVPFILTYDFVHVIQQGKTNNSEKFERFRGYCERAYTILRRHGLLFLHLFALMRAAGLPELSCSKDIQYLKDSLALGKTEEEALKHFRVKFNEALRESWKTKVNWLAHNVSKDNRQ
T1 sequence (P27986 whole entry partner, canonical isoform): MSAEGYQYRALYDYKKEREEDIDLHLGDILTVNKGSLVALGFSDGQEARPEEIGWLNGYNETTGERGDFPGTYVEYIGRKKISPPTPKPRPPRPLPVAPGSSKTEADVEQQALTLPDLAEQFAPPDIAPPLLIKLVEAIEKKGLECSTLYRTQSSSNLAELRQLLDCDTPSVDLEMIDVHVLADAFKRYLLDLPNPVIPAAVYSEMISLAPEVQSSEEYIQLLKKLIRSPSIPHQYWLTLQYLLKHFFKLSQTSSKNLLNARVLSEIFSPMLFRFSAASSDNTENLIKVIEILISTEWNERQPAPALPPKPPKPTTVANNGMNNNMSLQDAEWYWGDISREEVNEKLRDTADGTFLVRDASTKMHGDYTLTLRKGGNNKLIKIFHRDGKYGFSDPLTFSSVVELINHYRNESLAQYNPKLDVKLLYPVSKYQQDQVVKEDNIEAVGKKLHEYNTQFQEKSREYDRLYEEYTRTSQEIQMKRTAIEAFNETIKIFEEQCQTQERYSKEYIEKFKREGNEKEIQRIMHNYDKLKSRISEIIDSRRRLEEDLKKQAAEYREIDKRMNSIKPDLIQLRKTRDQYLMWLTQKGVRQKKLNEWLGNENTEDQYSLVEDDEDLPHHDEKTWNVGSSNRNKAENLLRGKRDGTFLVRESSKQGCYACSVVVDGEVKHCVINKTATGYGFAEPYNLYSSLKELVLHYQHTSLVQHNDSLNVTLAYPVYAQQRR
How it was run: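 Recombinant heterodimeric class I PI3K; PIP3 product measured by TR-FRET competition with labelled PIP3 for Eu-GRP-1 PH domain. Reaction 30 min at 25 °C, stopped with 10 mM EDTA.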

[2] = Hepatocyte stability, 0.01% final DMSO, 1 μM substrate (t1/2^b); assay type: in vitro ADME; conditions: human, hepatocytes, TA with 0.01% final DMSO
Description: Alternatively, assay reagents and/or conditions can be modified in determining the inhibitory activities to PI3K isomers. In additional studies, similar assay using TA and 0.01% final DMSO concentration were incubated with 1 million hepatocytes/mL at 1 μM substrate in duplicate. The incubation was carried out at 37° C. with 5% CO2 and saturating humidity.

[3] = basophils activated with anti-FcεRI mAb or fMLP, geometric mean
[4] = 2 μM substrate, samples at 0, 1, 2, 4 hours, read-out: human hepatocyte t½^a
[5] = 1 μM substrate, samples at 0, 1, 3, 6 hours, read-out: human hepatocyte t½^b
[6] = human hepatocytes, read-out: t1/2^a
[7] = human hepatocytes, read-out: t1/2^b

| Structure (SMILES) | EC50 (basophils; [3]) [nM] | half-life at 2 μM [1, 4] [h] | IC50 (PI3Kδ) [nM] | half-life at 1 μM [2, 5] [h] | EC50 (basophils; basophil activation) [nM] | half-life at 2 μM [1, 6] [h] | half-life at 1 μM [2, 7] [h] |
| --- | --- | --- | --- | --- | --- | --- | --- |
| CC[C@H](Nc1nc(N)nc(N)c1C#N)c1nc2cccc(F)c2c(=O)n1-c1cc(F)cc(F)c1 [Compound 77a, (S)-2,4-diamino-6-((1-(3-(3,5-difluorophenyl)-5-fluoro-4-oxo-3,4-dihydroquinazolin-2-yl)propyl)amino)pyrimidine-5-carbonitrile] | 1 to 10 | > 10 | 1 to 10 | 1 to 3 |  |  |  |
| C[C@H](Nc1nc(N)nc(N)c1C#N)c1nc2cccc(Cl)c2c(=O)n1-c1cc(F)cc(F)c1 [Compound 1a, 2,4-diamino-6-((1-(5-chloro-3-(3,5-difluorophenyl)-4-oxo-3,4-dihydroquinazolin-2-yl)ethyl)amino)pyrimidine-5-carbonitrile] | < 1 | 6 to 10 | < 1 | 1 to 3 | < 0.5 | > 9 | > 1 |
| CC(Nc1nc(N)nc(N)c1C#N)c1nc2cccc(F)c2c(=O)n1-c1cc(F)cc(C(F)F)c1 (single isomer, unassigned) [Compound 54a] | 1 to 10 | > 10 | 10 to 50 | 3 to 6 |  |  |  |
| CCC(Nc1nc(N)nc(N)c1C#N)c1nc2c(F)ccc(F)c2c(=O)n1-c1cc(F)cc(F)c1 (single isomer, unassigned) [Compound 27a] | 1 to 10 | > 10 | 10 to 50 | 1 to 3 |  |  |  |
| C[C@H](Nc1ncnc2[nH]cnc12)c1nc2cccc(Cl)c2c(=O)n1-c1ccccc1 [X, reference compound] | 1 to 10 | 1 to 3 |  |  | > 5 | < 1 | < 2 |
| CC(Nc1nc(N)nc(N)c1C#N)c1nc2cccc(F)c2c(=O)n1-c1cc(F)cc(Cl)c1 (single isomer, unassigned) [Compound 44a] | 10 to 50 | > 10 | 10 to 50 | 1 to 3 |  |  |  |
| CC(Nc1nc(N)nc(N)c1C(N)=O)c1nc2cccc(Cl)c2c(=O)n1-c1cc(F)cc(F)c1 (single isomer, unassigned) [Compound 90a] | 1 to 10 | > 10 | 1 to 10 | 3 to 6 |  |  |  |
| CC(Nc1nc(N)nc(N)c1C#N)c1nc2c(Cl)ccc(Cl)c2c(=O)n1-c1cc(F)cc(F)c1 (single isomer, unassigned) [Compound 74a] | < 1 | 3 to 6 | 1 to 10 |  |  |  |  |
| COc1cc(OC)cc(-n2c(C(C)Nc3nc(N)nc(N)c3C#N)nc3cccc(Cl)c3c2=O)c1 (single isomer, unassigned) [Compound 51a] | 1 to 10 | 3 to 6 | 1 to 10 |  |  |  |  |
| CC(Nc1nc(N)nc(N)c1C#N)c1nc2c(F)ccc(Cl)c2c(=O)n1-c1cc(F)cc(F)c1 (single isomer, unassigned) [Compound 15a] | < 1 | 3 to 6 | < 1 |  |  |  |  |
| Cc1ccc(F)c2nc(C(C)Nc3nc(N)nc(N)c3C#N)n(-c3cc(F)cc(F)c3)c(=O)c12 (single isomer, unassigned) [Compound 25a] | < 1 | 1 to 3 | < 1 |  |  |  |  |
| CC(Nc1nc(N)nc(N)c1C#N)c1nc2cccc(C(F)F)c2c(=O)n1-c1cc(F)cc(C(F)F)c1 (single isomer, unassigned) [Compound 99a] | 10 to 50 | 6 to 10 | 1 to 10 |  |  |  |  |
| CCC(Nc1nc(N)nc(N)c1C#N)c1nc2cccc(Cl)c2c(=O)n1-c1cc(F)cc(F)c1 (single isomer, unassigned) [Compound 78a] | 1 to 10 | 6 to 10 | 1 to 10 |  |  |  |  |
| CCC(Nc1nc(N)nc(N)c1C#N)c1nc2c(C)cccc2c(=O)n1-c1cc(F)cc(F)c1 (single isomer, unassigned) [Compound 76a] | > 50 | > 10 | 10 to 50 |  |  |  |  |
| CCC(Nc1nc(N)nc(N)c1C#N)c1nc2c(Cl)ccc(F)c2c(=O)n1-c1cc(F)cc(F)c1 (single isomer, unassigned) [Compound 102a] | 1 to 10 | 6 to 10 | 10 to 50 |  |  |  |  |
| CC(Nc1nc(N)nc(N)c1C#N)c1nc2cccc(Cl)c2c(=O)n1-c1cc(F)cc(C(F)F)c1 (single isomer, unassigned) [Compound 55a] | 1 to 10 | 6 to 10 | < 1 |  |  |  |  |
| CCC(Nc1nc(N)nc(N)c1C#N)c1nc2c(Cl)cccc2c(=O)n1-c1cc(F)cc(F)c1 (single isomer, unassigned) [Compound 72a] | > 50 | 6 to 10 | 10 to 50 |  |  |  |  |
| Cc1ccc(Cl)c2c(=O)n(-c3cc(F)cc(F)c3)c(C(C)Nc3nc(N)nc(N)c3C#N)nc12 (single isomer, unassigned) [Compound 73a] | < 1 | 3 to 6 | 1 to 10 |  |  |  |  |

Further lines, with some results ahead:

| EC50 (basophils; [3]) [nM] | half-life at 2 μM [1, 4] [h] | IC50 (PI3Kδ) [nM] | half-life at 1 μM [2, 5] [h] | Structure (SMILES) | EC50 (basophils; basophil activation) [nM] | half-life at 2 μM [1, 6] [h] | half-life at 1 μM [2, 7] [h] |
| --- | --- | --- | --- | --- | --- | --- | --- |
| 1 to 10 | > 10 | 1 to 10 | 1 to 3 | CC(Nc1nc(N)nc(N)c1C#N)c1nc2c(Cl)cccc2c(=O)n1-c1cc(F)cc(F)c1 (single isomer, unassigned) [Compound 71a] |  |  |  |
| 1 to 10 | > 10 | 10 to 50 | > 10 | CCC(Nc1nc(N)nc(N)c1C#N)c1nc2ccccc2c(=O)n1-c1cc(F)cc(F)c1 (single isomer, unassigned) [Compound 36a] |  |  |  |
| 1 to 10 | > 10 | 1 to 10 | 3 to 6 | CC(Nc1nc(N)nc(N)c1C#N)c1nc2c(C#N)cccc2c(=O)n1-c1cc(F)cc(F)c1 (single isomer, unassigned) [Compound 101a] |  |  |  |
| 1 to 10 | > 10 | 1 to 10 | 3 to 6 | CC(Nc1nc(N)nc(N)c1C#N)c1nc2cccc(F)c2c(=O)n1-c1cccc(C(F)F)c1 (single isomer, unassigned) [Compound 97a] |  |  |  |
| 1 to 10 | > 10 | < 1 | 1 to 3 | CC(Nc1nc(N)nc(N)c1C#N)c1nc2cccc(Cl)c2c(=O)n1-c1cccc(C(F)F)c1 (single isomer, unassigned) [Compound 106a] |  |  |  |
| 1 to 10 | > 10 | 1 to 10 | > 10 | CC(Nc1nc(N)nc(N)c1C#N)c1nc2c(C#N)cccc2c(=O)n1-c1ccccc1 (single isomer, unassigned) [Compound 122a] |  |  |  |
| 1 to 10 | > 10 | 1 to 10 | 3 to 6 | CC(Nc1nc(N)nc(N)c1C#N)c1nc2c(F)cccc2c(=O)n1-c1cc(F)cc(F)c1 (single isomer, unassigned) [Compound 16a] |  |  |  |
| < 1 | > 10 | 1 to 10 | 3 to 6 | Cc1ccc(F)c2c(=O)n(-c3ccccc3)c(C(C)Nc3nc(N)nc(N)c3C#N)nc12 (single isomer, unassigned) [Compound 61a] |  |  |  |
| 1 to 10 | > 10 | 1 to 10 | 3 to 6 | CC(Nc1nc(N)nc(N)c1C#N)c1nc2cccc(F)c2c(=O)n1-c1cc(F)cc(F)c1 (single isomer, unassigned) [Compound 10a] |  |  |  |
| 10 to 50 | > 10 | 1 to 10 |  | Cc1cccc2c(=O)n(-c3cc(F)cc(F)c3)c(C(C)Nc3nc(N)nc(N)c3C#N)nc12 (single isomer, unassigned) [Compound 75a] |  |  |  |
| 10 to 50 | 3 to 6 | 1 to 10 |  | CC(Nc1nc(N)nc(N)c1C#N)c1nc2cccc(Cl)c2c(=O)n1-c1cc(Cl)cc(Cl)c1 (single isomer, unassigned) [Compound 41a] |  |  |  |
| > 50 | > 10 | 10 to 50 |  | CC(Nc1nc(N)nc(N)c1C#N)c1nc2c(F)ccc(Cl)c2c(=O)n1-c1cc(F)cc(C#N)c1 (single isomer, unassigned) [Compound 48a] |  |  |  |
| < 1 | 3 to 6 | < 1 |  | Cc1cccc2nc(C(C)Nc3nc(N)nc(N)c3C#N)n(-c3cc(F)cc(F)c3)c(=O)c12 (single isomer, unassigned) [Compound 18a] |  |  |  |
| 1 to 10 | 6 to 10 | < 1 |  | Cc1ccc(Cl)c2c(=O)n(-c3ccccc3)c(C(C)Nc3nc(N)nc(N)c3C#N)nc12 (single isomer, unassigned) [Compound 4a] |  |  |  |
| 1 to 10 | 6 to 10 | 1 to 10 |  | CC(Nc1nc(N)nc(N)c1C#N)c1nc2cccc(F)c2c(=O)n1-c1cccc(C(F)(F)F)c1 (single isomer, unassigned) [Compound 40a] |  |  |  |

From US9029384B2, “Phosphatidylinositol 3-kinase inhibitors” (Gilead Calistoga LLC, priority 2012, dated 2015)
